Read-outs that look alike come from different tables or passages of the source.
Tests used:
SARS-CoV-2 M^pro (WT) = SARS-CoV-2 M^pro (WT) (Severe acute respiratory syndrome coronavirus 2, UniProt P0DTD1); assay: biochemical; assay type: binding; conditions: for ΔTm at 50 µM: read-out: ΔTm
WT M^pro = WT M^pro (Severe acute respiratory syndrome coronavirus 2, UniProt P0DTD1); assay type: binding
[1] = 5 μM M^pro, 50 μM inhibitor, vs DMSO control

Row | Compound | change of protein Tm upon binding (in words) (SARS-CoV-2 M^pro (WT)) | Tm (SARS-CoV-2 M^pro (WT); 5 μM M^pro, 50 μM inhibitor, DMSO control 56.25) | ΔTm at 50 µM (SARS-CoV-2 M^pro (WT); [1]) | Tm (SARS-CoV-2 M^pro (WT)) | ΔTm at 50 µM (SARS-CoV-2 M^pro (WT)) | K 2 (= k 2/k −2) (WT M^pro) | k 2 (WT M^pro) | k -2 (WT M^pro) | k chem (WT M^pro) | k 1 (WT M^pro; 25 °C) | k -1 (WT M^pro; 25 °C)
1 | CCC[C@H](NC(=O)[C@@H]1[C@H]2CCC[C@H]2CN1C(=O)[C@@H](NC(=O)[C@@H](NC(=O)c1cnccn1)C1CCCCC1)C(C)(C)C)C(=O)C(=O)NC1CC1 [Telaprevir] | did not result in Tm changes | 56.25 °C | 0 °C | – | – | – | – | – | – | – | –
2 | CC(C)(C)NC(=O)N[C@H](C(=O)N1C[C@H]2[C@@H]([C@H]1C(=O)NC(CC1CCC1)C(=O)C(N)=O)C2(C)C)C(C)(C)C (stereo partly drawn) [Boceprevir] | caused changes of protein Tm | – | 5.75 °C | 62.00 °C | – | – | – | – | – | – | –
3 | COc1cccc2[nH]c(C(=O)N[C@@H](CC(C)C)C(=O)N[C@@H](C[C@@H]3CCNC3=O)C(=O)CO)cc12 [PF-00835231] | caused changes of protein Tm | – | – | 70.25 °C | ~14 °C | 0.37 ± 0.07 | 0.90 ± 0.18 s⁻¹ | 2.4 ± 0.1 s⁻¹ | 0.17 ± 0.07 s⁻¹ | (0.35 ± 0.09)×10^6 M^−1×s^−1 | 12.4 ± 0.6 s⁻¹

— publication PMC8686763, “Pre-Steady-State Kinetics of the SARS-CoV-2 Main Protease as a Powerful Tool for Antiviral Drug Discovery” (Frontiers in Pharmacology, 2021)
